In PubChem BioAssay AID248 (DTP/NCI, 2004):
Where “and” joins values, the source holds several entries; their conditions need not be identical. Equal entries are not always repeated. Toxic doses and inconclusive results are not listed. Cut-off read from the data, not from the text of the source: active = T/C of 150% or more; inactive = T/C below 125%.

Test system: L1210 leukemia ip in BDF1 mice, survival T/C
Assay: NCI In Vivo Anticancer Drug Screen. Data for tumor model L1210 Leukemia (intraperitoneal) in B6D2F1 (BDF1) mice
Settings: endpoint: mean survival time, higher = longer survival
Outline: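 Antitumor effect is assessed in tumor-bearing animals. Survival in the compound arm is compared with a vehicle-dosed control arm and expressed as their quotient.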

[1] = dose: 100.0 mg/kg/injection, schedule: Q01DX001 (ip), vehicle: Klucel (hydroxypropylcellulose) (HPC)
[2] = dose: 100.0 mg/kg/injection, schedule: Q04DX003 (ip), vehicle: Klucel (hydroxypropylcellulose) (HPC)
[3] = dose: 200.0 mg/kg/injection, schedule: Q01DX001 (ip), vehicle: Klucel (hydroxypropylcellulose) (HPC)
[4] = dose: 200.0 mg/kg/injection, schedule: Q04DX003 (ip), vehicle: Klucel (hydroxypropylcellulose) (HPC)
[5] = dose: 400.0 mg/kg/injection, schedule: Q04DX003 (ip), vehicle: Klucel (hydroxypropylcellulose) (HPC)
[6] = dose: 50.0 mg/kg/injection, schedule: Q01DX001 (ip), vehicle: Klucel (hydroxypropylcellulose) (HPC)
[7] = dose: 100.0 mg/kg/injection, schedule: Q04DX002 (ip), vehicle: Klucel (hydroxypropylcellulose) (HPC)
[8] = dose: 200.0 mg/kg/injection, schedule: Q04DX002 (ip), vehicle: Klucel (hydroxypropylcellulose) (HPC)
[9] = dose: 100.0 mg/kg/injection, schedule: Q01DX009 (ip), vehicle: saline with Tween-80
[10] = dose: 200.0 mg/kg/injection, schedule: Q01DX009 (ip), vehicle: saline with Tween-80
[11] = dose: 400.0 mg/kg/injection, schedule: Q01DX001 (ip), vehicle: saline
[12] = dose: 50.0 mg/kg/injection, schedule: Q01DX009 (ip), vehicle: saline with Tween-80
[13] = dose: 100.0 mg/kg/injection, schedule: Q04DX003 (ip), vehicle: saline with Tween-80

Measured: T/C

CC(=O)OC1CC2C(C)(C)C(=O)C=CC2(C)C2CCC3(C)C(c4ccoc4)OC(=O)C4OC43C12C (centres undefined)
inactive: dose: 100.0 mg/kg/injection, schedule: Q01DX001 (sc), vehicle: steriod suspending solution 104 % of control | dose: 200.0 mg/kg/injection, schedule: Q01DX001 (sc), vehicle: steriod suspending solution 104 % of control | dose: 400.0 mg/kg/injection, schedule: Q01DX001 (sc), vehicle: steriod suspending solution 92 % of control

C[C@]12CCC(=O)C[C@H]1CC[C@@H]1[C@@H]2CC[C@@]2(C)[C@H]1CC[C@]2(C)O
inactive: dose: 50.0 mg/kg/injection, schedule: Q01DX Z (sc), vehicle: steriod suspending solution 98 % of control | dose: 100.0 mg/kg/injection, schedule: Q01DX Z (sc), vehicle: steriod suspending solution 98 % of control | dose: 200.0 mg/kg/injection, schedule: Q01DX Z (sc), vehicle: steriod suspending solution 101 % of control | dose: 400.0 mg/kg/injection, schedule: Q01DX Z (sc), vehicle: steriod suspending solution 98 % of control

c1ccc2c(c1)C(=NOc1nc3ccccc3c3ccccc13)c1ccccc1-2
inactive: [1] 96 % of control | [2] 93 % of control | [3] 91 % of control | [4] 95 % of control | dose: 400.0 mg/kg/injection, schedule: Q01DX001 (ip), vehicle: Klucel (hydroxypropylcellulose) (HPC) 86 % of control | [5] 99 % of control

CC1(C)Cc2c(OC(N)=O)cccc2O1
inactive: dose: 25.0 mg/kg/injection, schedule: Q01DX001 (ip), vehicle: Klucel (hydroxypropylcellulose) (HPC) 102 % of control | [6] 98 % of control

N/N=C(\c1ccccc1)c1ccc(Cl)cc1
inactive: dose: 100.0 mg/kg/injection, schedule: Q01DX001 (ip), vehicle: carboxymethylcellulose (CMC) 96 % of control | dose: 200.0 mg/kg/injection, schedule: Q01DX001 (ip), vehicle: carboxymethylcellulose (CMC) 87 % of control | dose: 400.0 mg/kg/injection, schedule: Q01DX001 (ip), vehicle: carboxymethylcellulose (CMC) 95 % of control

O=C1Nc2ccccc2C1Cc1cc2c(nn1)[nH]c1ccccc12 (centres undefined)
inactive: dose: 12.5 mg/kg/injection, schedule: Q04DX002 (ip), vehicle: Klucel (hydroxypropylcellulose) (HPC) 95 % of control | dose: 25.0 mg/kg/injection, schedule: Q04DX002 (ip), vehicle: Klucel (hydroxypropylcellulose) (HPC) 106 % of control | dose: 50.0 mg/kg/injection, schedule: Q04DX002 (ip), vehicle: Klucel (hydroxypropylcellulose) (HPC) 103 % of control | [7] 122 % of control | [8] 96 % of control | dose: 400.0 mg/kg/injection, schedule: Q04DX002 (ip), vehicle: Klucel (hydroxypropylcellulose) (HPC) 92 % of control

Cc1cc(N(CCCOS(C)(=O)=O)CCCOS(C)(=O)=O)ccc1C=Nc1ccc(-c2nc(Cc3ccccc3)sc2C)cc1
inactive: [9] 96 % of control | [10] 98 % of control

Nc1ccc(Cl)nc1
inactive: dose: 50.0 mg/kg/injection, schedule: Q01DX001 (ip), vehicle: saline 98 % of control | dose: 100.0 mg/kg/injection, schedule: Q01DX001 (ip), vehicle: saline 98 % of control | dose: 200.0 mg/kg/injection, schedule: Q01DX001 (ip), vehicle: saline 102 % of control | [11] 96 % of control

O=C(c1ccccc1)C(Br)c1ccc([N+](=O)[O-])cc1 (centres undefined)
inactive: dose: 100.0 mg/kg/injection, schedule: Q01DX009 (ip), vehicle: Klucel (hydroxypropylcellulose) (HPC) 99 % of control | [2] 105 % of control | dose: 200.0 mg/kg/injection, schedule: Q01DX009 (ip), vehicle: Klucel (hydroxypropylcellulose) (HPC) 105 % of control | [4] 108 % of control | dose: 400.0 mg/kg/injection, schedule: Q01DX009 (ip), vehicle: Klucel (hydroxypropylcellulose) (HPC) 95 % of control | [5] 103 % of control

COc1ccc(C(=O)N/N=C/c2cccc(OC)c2OC)cc1
inactive: dose: 45.0 mg/kg/injection, schedule: Q01DX009 (ip), vehicle: saline 98 % of control | dose: 65.0 mg/kg/injection, schedule: Q01DX009 (ip), vehicle: saline 98 % of control | dose: 85.0 mg/kg/injection, schedule: Q04DX003 (ip), vehicle: saline 93 % of control | dose: 100.0 mg/kg/injection, schedule: Q01DX009 (ip), vehicle: saline 102 % of control | [7] 104 % of control and 105 % of control | dose: 130.0 mg/kg/injection, schedule: Q04DX003 (ip), vehicle: saline 93 % of control | dose: 150.0 mg/kg/injection, schedule: Q01DX009 (ip), vehicle: saline 95 % of control | dose: 175.0 mg/kg/injection, schedule: Q01DX001 (ip), vehicle: saline 104 % of control | dose: 175.0 mg/kg/injection, schedule: Q04DX002 (ip), vehicle: saline 91 % of control | [8] 101 % of control and 104 % of control | dose: 200.0 mg/kg/injection, schedule: Q04DX003 (ip), vehicle: saline 93 % of control | dose: 265.0 mg/kg/injection, schedule: Q01DX001 (ip), vehicle: saline 107 % of control | dose: 265.0 mg/kg/injection, schedule: Q04DX002 (ip), vehicle: saline 102 % of control | dose: 300.0 mg/kg/injection, schedule: Q04DX003 (ip), vehicle: saline 102 % of control | [11] 96 % of control | dose: 400.0 mg/kg/injection, schedule: Q04DX002 (ip), vehicle: saline 96 % of control | dose: 600.0 mg/kg/injection, schedule: Q01DX001 (ip), vehicle: saline 102 % of control | dose: 600.0 mg/kg/injection, schedule: Q04DX002 (ip), vehicle: saline 106 % of control

S=c1nn[nH]n1C1CCCCC1
inactive: dose: 25.0 mg/kg/injection, schedule: Q01DX009 (ip), vehicle: saline with Tween-80 92 % of control | [12] 88 % of control | [9] 90 % of control | [13] 103 % of control | dose: 400.0 mg/kg/injection, schedule: Q04DX003 (ip), vehicle: saline with Tween-80 87 % of control

O=CC1c2ccccc2C(C=O)c2c1ccc1ccccc21 (centres undefined)
inactive: [6] 93 % of control | [1] 91 % of control | [3] 100 % of control

O=C(O)Cc1cccc(S(=O)(=O)F)c1
inactive: dose: 25.0 mg/kg/injection, schedule: Q04DX003 (ip), vehicle: saline with Tween-80 96 % of control | [12] 109 % of control | dose: 50.0 mg/kg/injection, schedule: Q04DX003 (ip), vehicle: saline with Tween-80 99 % of control | dose: 100.0 mg/kg/injection, schedule: Q01DX001 (ip), vehicle: saline with Tween-80 96 % of control | [9] 111 % of control | dose: 100.0 mg/kg/injection, schedule: Q04DX002 (ip), vehicle: saline with Tween-80 91 % of control | [13] 99 % of control and 100 % of control | dose: 200.0 mg/kg/injection, schedule: Q01DX001 (ip), vehicle: saline with Tween-80 92 % of control | [10] 104 % of control | dose: 200.0 mg/kg/injection, schedule: Q04DX002 (ip), vehicle: saline with Tween-80 86 % of control | dose: 200.0 mg/kg/injection, schedule: Q04DX003 (ip), vehicle: saline with Tween-80 105 % of control | dose: 400.0 mg/kg/injection, schedule: Q01DX001 (ip), vehicle: saline with Tween-80 100 % of control
